Among the data in ChEMBL document CHEMBL4261498, “Synthesis, characterization, and radioprotective activity of α,β-unsaturated aryl sulfone analogs and their Tempol conjugates” (Medchemcomm, 2017) are Activity and viability values, retold here.

Calls of active or inactive are those of the source. The rule behind the calls is not given here.

The subject of series [1] is HUVEC. Briefly: Cytotoxicity against HUVEC after 24 hrs by MTT assay. In kind it is cell-based. The following applies: human. (In general: Tetrazolium assays rely on reduction of a dye to a coloured formazan, in cell work by metabolically active cells.)
Series [2] concerns HUVEC. In words: Radioprotective activity against 5 Gy gamma radiation-mediated cell damage in HUVEC assessed as increase in cell survival at 0.1 to 10 uM preincubated for 2 hrs followed by 5 Gy gamma irradiation and measured after 48 hrs by MTT assay. In kind it is functional, cell-based. The following applies: Homo sapiens.
Series [3] relates to HUVEC. Briefly: Radioprotective activity against 5 Gy gamma radiation-mediated cell damage in HUVEC assessed as increase in cell survival at 0.1 to 10 uM after 48 hrs by MTT assay. In kind it is functional, cell-based. The following applies: Homo sapiens.
The subject of series [4] is HUVEC. In words: Cytotoxicity against HUVEC at <10 uM after 24 hrs by MTT assay. In kind it is cell-based. Conditions: human.
Series [5] deals with HUVEC. Briefly: Radioprotective activity against 5 Gy gamma radiation-mediated cell damage in HUVEC assessed as increase in cell survival at 0.01 to 10 uM preincubated for 2 hrs followed by 5 Gy gamma irradiation and measured after 48 hrs by MTT assay. In kind it is functional, cell-based. Conditions: Homo sapiens.
Series [6] has as its system HUVEC. In words: Radioprotective activity against 5 Gy gamma radiation-mediated cell damage in HUVEC assessed as increase in cell survival at 0.01 to 1 uM after 48 hrs by MTT assay. In kind it is functional, cell-based. Conditions: Homo sapiens.
Series [7] has as its system HUVEC. In words: Radioprotective activity against 5 Gy gamma radiation-mediated cell damage in HUVEC assessed as early apoptotic cells at 0.1 uM preincubated for 2 hrs followed by 5 Gy gamma irradiation and measured after 24 hrs by annexin-V-FITC/propidium iodide staining-based flow cytometric method (reference value: 21.2%). The class given is functional, Homo sapiens. On the technique in general: In flow cytometry, cells or beads pass a laser one at a time.

The subject of series [8] is HUVEC. Briefly: Radioprotective activity against 5 Gy gamma radiation-mediated cell damage in HUVEC assessed as late apoptotic cells at 0.1 uM preincubated for 2 hrs followed by 5 Gy gamma irradiation and measured after 24 hrs by annexin-V-FITC/propidium iodide staining-based flow cytometric method (reference value: 9.5%). The class given is functional, Homo sapiens.

Series [9] concerns HUVEC. Briefly: Radioprotective activity against 5 Gy gamma radiation-mediated cell damage in HUVEC assessed as necrotic cells at 0.1 uM preincubated for 2 hrs followed by 5 Gy gamma irradiation and measured after 24 hrs by annexin-V-FITC/propidium iodide staining-based flow cytometric method (reference value: 3.5%). In kind it is functional, Homo sapiens.
The subject of series [10] is HUVEC. Briefly: Radioprotective activity against 5 Gy gamma radiation-mediated cell damage in HUVEC assessed as viable cells at 0.1 uM preincubated for 2 hrs followed by 5 Gy gamma irradiation and measured after 24 hrs by annexin-V-FITC/propidium iodide staining-based flow cytometric method (reference value: 65.8%). In kind it is functional. The following applies: Homo sapiens, light or radiation study, read-out: Activity.

Series [11] has as its system HUVEC. In words: Radioprotective activity against 5 Gy gamma radiation-mediated cell damage in HUVEC assessed as early apoptotic cells at 1 uM preincubated for 2 hrs followed by 5 Gy gamma irradiation and measured after 24 hrs by annexin-V-FITC/propidium iodide staining-based flow cytometric method (reference value: 21.2%). In kind it is functional, Homo sapiens.
Series [12] has as its system HUVEC. In words: Radioprotective activity against 5 Gy gamma radiation-mediated cell damage in HUVEC assessed as late apoptotic cells at 1 uM preincubated for 2 hrs followed by 5 Gy gamma irradiation and measured after 24 hrs by annexin-V-FITC/propidium iodide staining-based flow cytometric method (reference value: 9.5%). The class given is functional, Homo sapiens.

Series [13] concerns HUVEC. Briefly: Radioprotective activity against 5 Gy gamma radiation-mediated cell damage in HUVEC assessed as necrotic cells at 1 uM preincubated for 2 hrs followed by 5 Gy gamma irradiation and measured after 24 hrs by annexin-V-FITC/propidium iodide staining-based flow cytometric method (reference value: 3.5%). The class given is functional, Homo sapiens.
Series [14] relates to HUVEC. Briefly: Radioprotective activity against 5 Gy gamma radiation-mediated cell damage in HUVEC assessed as viable cells at 1 uM preincubated for 2 hrs followed by 5 Gy gamma irradiation and measured after 24 hrs by annexin-V-FITC/propidium iodide staining-based flow cytometric method (reference value: 65.8%). The following applies: Homo sapiens, light or radiation study, read-out: Activity. The class given is functional.

Series [15] has as its system HUVEC. In words: Radioprotective activity against 5 Gy gamma radiation-mediated cell damage in HUVEC assessed as early apoptotic cells at 0.01 uM preincubated for 2 hrs followed by 5 Gy gamma irradiation and measured after 24 hrs by annexin-V-FITC/propidium iodide staining-based flow cytometric method (reference value: 21.2%). In kind it is functional, Homo sapiens.

Series [16] deals with HUVEC. In words: Radioprotective activity against 5 Gy gamma radiation-mediated cell damage in HUVEC assessed as late apoptotic cells at 0.01 uM preincubated for 2 hrs followed by 5 Gy gamma irradiation and measured after 24 hrs by annexin-V-FITC/propidium iodide staining-based flow cytometric method (reference value: 9.5%). In kind it is functional, Homo sapiens.
Series [17] deals with HUVEC. In words: Radioprotective activity against 5 Gy gamma radiation-mediated cell damage in HUVEC assessed as necrotic cells at 0.01 uM preincubated for 2 hrs followed by 5 Gy gamma irradiation and measured after 24 hrs by annexin-V-FITC/propidium iodide staining-based flow cytometric method (reference value: 3.5%). The class given is functional, Homo sapiens.
For series [18], the system named is HUVEC. In words: Radioprotective activity against 5 Gy gamma radiation-mediated cell damage in HUVEC assessed as viable cells at 0.01 uM preincubated for 2 hrs followed by 5 Gy gamma irradiation and measured after 24 hrs by annexin-V-FITC/propidium iodide staining-based flow cytometric method (reference value: 65.8%). In kind it is functional. Conditions: Homo sapiens, light or radiation study, read-out: Activity.

For series [19], the system named is HUVEC. In words: Radioprotective activity against 5 Gy gamma radiation-mediated cell damage in HUVEC assessed as reduction of total p53 levels at 0.01 to 1 uM by Western blot method. The following applies: Homo sapiens. The class given is functional, cell-based. In general terms: Immunoblotting shows a protein as a band on a membrane.
Series [20] relates to HUVEC. In words: Radioprotective activity against 5 Gy gamma radiation-mediated cell damage in HUVEC assessed as reduction of phopsho-p53 levels at 0.01 to 1 uM by Western blot method. The class given is functional, cell-based. Conditions: Homo sapiens.
The test system of series [21] is HUVEC. In words: Radioprotective activity against 5 Gy gamma radiation-mediated cell damage in HUVEC assessed as decrease in caspase-3 activation at 0.01 to 1 uM by Western blot method. In kind it is functional, cell-based. The following applies: Homo sapiens.
The subject of series [22] is HUVEC. Briefly: Radioprotective activity against 5 Gy gamma radiation-mediated cell damage in HUVEC assessed as increase in Bcl-2 levels at 0.01 to 1 uM by Western blot method. In kind it is functional, cell-based. The following applies: Homo sapiens.
Series [23] relates to HUVEC. Briefly: Radioprotective activity against 5 Gy gamma radiation-mediated cell damage in HUVEC assessed as decrease in Bax levels at 0.01 to 1 uM by Western blot method. Conditions: Homo sapiens. The class given is functional, cell-based.

As to `CC(c1ccccc1)S(=O)(=O)/C=C/c1ccc(C(=O)O)cc1` (stereo unspecified), the Activity entry in series [1] is listed as “Toxic”. In addition, the outcome in series [2] and in series [3] was Active.

As to `CC1(C)CC(OC(=O)c2ccc(/C=C/S(=O)(=O)Cc3ccc(Cl)cc3)cc2)CC(C)(C)N1[O]`, the Activity result is reported as “Non-Toxic” in [4]; 6.2% in series [7]; 2.5% in series [8]; 1.3% in series [9]; 11.7% in series [11]; 2.9% in series [12]. Moreover, the Activity in series [13] is on record as 2.1%; in series [15], 11.2%; in [16] it was 2.2%; in [17], 1.9%. The outcome in [5], in [6], in series [19], in series [20], in series [21] and in [22] was Active. Besides, the outcome in [23] was Active. Also, in series [10], the viability at 0.1 µM is 90%. Besides, the viability at 1 µM in series [14] was 83.3%. Further, the viability at 0.01 µM in series [18] was found to be 84.7%.

In the case of `COc1ccc(CS(=O)(=O)/C=C/c2ccc(C(=O)O)cc2)cc1`, in series [1], the Activity result is given as “Toxic”.

On to `Cc1ccc(CS(=O)(=O)/C=C/c2ccc(C(=O)O)cc2)cc1`, for which the Activity entry in series [1] is “Toxic”.

In the case of `CC1(C)CC(OC(=O)c2ccc(/C=C/S(=O)(=O)Cc3ccc(F)cc3)cc2)CC(C)(C)N1[O]`, the Activity result in series [4] was “Non-Toxic”; in series [7], 7.1%; in series [8], 2.7%; in [9], 1.4%; in [11], 6.8%; in series [12] it was 1.4%. The Activity in series [13] is reported as 1%; in series [15] it was 13%; in series [16], 4%; in [17], 1.9%. For the same compound, the outcome in [5] was Active. Further, the viability at 0.1 µM in [10] was found to be 88.8%. For the same compound, in [14], the viability at 1 µM was determined as 90.8%. In addition, the viability at 0.01 µM in [18] worked out at 81%.

With `CC(C)(C)c1ccc(CS(=O)(=O)/C=C/c2ccc(C(=O)OC3CC(C)(C)N([O])C(C)(C)C3)cc2)cc1`, in series [4], the Activity entry is “Non-Toxic”.

Consider `CC1(C)CC(OC(=O)c2ccc(/C=C/S(=O)(=O)Cc3ccc(OC(F)(F)F)cc3)cc2)CC(C)(C)N1[O]`, for which the Activity entry in [4] is listed as “Non-Toxic”; in series [7] it was 12.7%; in series [8], 2%; in series [9], 0.6%; in series [11] it was 6.9%; in series [12], 1.1%. In addition, the Activity in series [13] was 1.7%; in series [15], 15%; in series [16], 1.4%; in series [17], 1.1%. In addition, the result in series [5] was inactive. The result in series [6], in series [19], in series [20], in [21], in [22] and in [23] was Active. Moreover, in series [10], the viability at 0.1 µM was 84.7%. The viability at 1 µM in [14] came to 90.3%. Also, in [18], the viability at 0.01 µM was found to be 82.5%.

Take `CC(c1ccccc1)S(=O)(=O)/C=C/c1ccc(C(=O)OC2CC(C)(C)N([O])C(C)(C)C2)cc1` (stereo unspecified): the Activity result in [4] was “Non-Toxic”.
